Read-outs that look alike come from different tables or passages of the source. Values belong to the compound of their own block, whether it stands above or below them.
Target: T1, P2X7 receptor (Homo sapiens, UniProt Q99572)
T1 construct: host or cells: SH-SY5Y
T1 sequence (Q99572 1-595): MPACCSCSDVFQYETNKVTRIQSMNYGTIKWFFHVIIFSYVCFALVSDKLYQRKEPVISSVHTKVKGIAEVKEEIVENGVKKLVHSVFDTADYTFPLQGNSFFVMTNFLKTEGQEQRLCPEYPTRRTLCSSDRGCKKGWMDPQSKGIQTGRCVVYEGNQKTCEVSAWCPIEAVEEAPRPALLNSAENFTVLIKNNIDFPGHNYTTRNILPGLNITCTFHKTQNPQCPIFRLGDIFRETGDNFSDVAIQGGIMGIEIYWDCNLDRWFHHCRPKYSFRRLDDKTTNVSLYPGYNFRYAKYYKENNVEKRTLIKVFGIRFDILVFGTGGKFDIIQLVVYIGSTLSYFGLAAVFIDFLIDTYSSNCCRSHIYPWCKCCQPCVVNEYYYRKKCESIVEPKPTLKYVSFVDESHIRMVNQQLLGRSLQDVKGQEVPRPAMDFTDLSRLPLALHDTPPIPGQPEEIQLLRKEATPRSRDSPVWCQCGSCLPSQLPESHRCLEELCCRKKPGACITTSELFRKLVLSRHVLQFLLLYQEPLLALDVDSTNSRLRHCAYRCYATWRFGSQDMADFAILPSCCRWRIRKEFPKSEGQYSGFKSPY
Assay: P2X7 calcium mobilization assay, high throughput, antagonist activity (Example 4A)
Assay type: cell-based
Summary of the method: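 Cells plated 100,000/well the day before; after 1 h dye loading and one rinse, cells were preincubated 1 h at room temperature with test compound. Calcium mobilization then read on FLIPR^TETRA; maximum RFU corrected by subtracting mean no-agonist response and referenced to mean agonist-control maximum.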

[1] = 50% decrease in the fluorescence response of cells exposed to 80 μM of 2′(3′)-O-(4-benzoyl-benzoyl)adenosine 5′-triphosphate, Example 4A, read-out: IC50
[2] = 50% decrease in the fluorescence response of cells exposed to 80 μM 2′(3′)-O-(4-benzoyl-benzoyl)adenosine 5′-triphosphate, Example 4A, read-out: IC50
[3] = SH-SY5Y cells, 50% decrease in fluorescence response to 80 μM BzATP, read-out: IC50
[4] = fluorescence response of cells exposed to 80 μM 2′(3′)-O-(4-benzoyl-benzoyl)adenosine 5′-triphosphate, Example 4A, read-out: IC50
[5] = P2X7 calcium mobilization, Example 4A, 50% decrease in the fluorescence response of cells exposed to 80 μM of (2′(3′)-O-(4-benzoyl-benzoyl)adenosine 5′-triphosephate), read-out: IC50

SMILES: O=C(NCC12CC3CC(CC(C3)C1)C2)c1cccc2nc(C(CC(=O)N3CCOCC3)C(=O)O)cn12 (centres unmarked) [Compound 803, 2-{5-[(adamantan-1-ylmethyl)carbamoyl]imidazo[1,2-a]pyridin-2-yl}-4-morpholin-4-yl-4-oxobutanoic acid]
- IC50 [1]: < 2 µM

SMILES: CC(C)CC(CNC(=O)c1cccc2nc(CC(=O)N3CCSCC3)cn12)c1ccccc1 (centres unmarked) [Compound 797, N-(4-methyl-2-phenylpentyl)-2-(2-oxo-2-thiomorpholin-4-ylethyl)imidazo [1,2-a]pyridine-5-carboxamide]
- IC50 [1]: < 2 µM

SMILES: C[C@H]1CNCCN1C(=O)Cc1cn2c(C(=O)NC[C@@H]3CC[C@@H]4C[C@H]3C4(C)C)cccc2n1 [Compound 557, N-{[(1R,2R,5R)-6,6-dimethylbicyclo[3.1.1]hept-2-yl]methyl}-2-{2-[(2S)-2-methylpiperazin-1-yl]-2-oxoethyl}imidazo [1,2-a]pyridine-5-carboxamide]
- IC50 [2]: < 2 µM

SMILES: CCN(C(=O)c1cn2c(C(=O)NCC34CC5CC(CC(C5)C3)C4)cccc2n1)C1CCN(C)CC1 [Compound 679, 5-N-(adamantan-1-ylmethyl)-2-N-ethyl-2-N-(1-methylpiperidin-4-yl)imidazo[1,2-a]pyridine-2,5-dicarboxamide]
- IC50 [1]: < 2 µM

SMILES: CCOC(=O)N1CCN(C(=O)c2cn3c(C(=O)NC[C@@H]4CC[C@H]5C[C@@H]4C5(C)C)cccc3n2)CC1 [Compound 452, ethyl 4-{[5-({[(1S,2R,5S)-6,6-dimethylbicyclo[3.1.1]hept-2-yl]methyl}carbamoyl)imidazo[1,2-a]pyridin-2-yl]carbonyl}piperazine-1-carboxylate]
- IC50 [2]: < 2 µM

SMILES: CC(C)CNC(=O)Cc1cn2c(C(=O)NCC(CC(C)C)c3ccccc3)cccc2n1 (centres unmarked) [Compound 223, 2-[2-(isobutylamino)-2-oxoethyl]-N-(4-methyl-2-phenylpentyl) imidazo [1,2-a]pyridine-5-carboxamide]
- IC50 [4]: < 2 µM

SMILES: CCOCCNC(=O)Cc1cn2c(C(=O)NCC34CC5CC(CC(C5)C3)C4)cccc2n1 [Compound 155, N-(adamantan-1-ylmethyl)-2-{2-[(2-ethoxyethyl)amino]-2-oxoethyl}imidazo[1,2-a]pyridine-5-carboxamide]
- IC50 [3]: < 2 µM

SMILES: CN(C(=O)Cc1cn2c(C(=O)NCC34CC5CC(CC(C5)C3)C4)cccc2n1)C1CCOC1 (centres unmarked) [Compound 37, N-(adamantan-1-ylmethyl)-2-{2-[methyl(tetrahydrofuran-3-yl)amino]-2-oxoethyl}imidazo[1,2-a]pyridine-5-carboxamide]
- IC50 [3]: < 2 µM

SMILES: O=C(NCC12CC3CC(CC(C3)C1)C2)c1cccc2nc(CCN3CCCC3)cn12 [Compound 1040, N-(adamantan-1-ylmethyl)-2-(2-pyrrolidin-1-ylethyl) imidazo [1,2-a]pyridine-5-carboxamide]
- IC50 [5]: < 2 µM

SMILES: CS(=O)(=O)C1CCN(C(=O)Cc2cn3c(C(=O)NCC45CC6CC(CC(C6)C4)C5)cccc3n2)CC1 [Compound 43]
- IC50 [3]: < 2 µM

SMILES: CS(=O)(=O)N1CCN(C(=O)Cc2cn3c(C(=O)NCC45CC6CC(CC(C6)C4)C5)cccc3n2)CC1 [Compound 44, N-(adamantan-1-ylmethyl)-2-{2-[4-(methylsulfonyl)piperazin-1-yl]-2-oxoethyl}imidazo[1,2-a]pyridine-5-carboxamide]
- IC50 [3]: < 2 µM

SMILES: CC1(C)[C@@H]2CC[C@@H](CNC(=O)c3cccc4nc(CC(=O)NCC5CCNCC5)cn34)[C@H]1C2 [Compound 589, N-{[(1R,2R,5R)-6,6-dimethylbicyclo[3.1.1]hept-2-yl]methyl}-2-{2-oxo-2-[(piperidin-4-ylmethyl)amino]ethyl} imidazo[1,2-a]pyridine-5-carboxamide]
- IC50 [2]: < 2 µM

SMILES: CCOC(=O)Cc1cn2c(C(=O)NCC3CCCCC3)cccc2n1 [Compound 141, ethyl {5-[(cyclohexylmethyl)car-bamoyl]imidazo[1,2-a]pyridin-2-yl}acetate]
- IC50 [3]: < 2 µM

SMILES: CCN(CCO)Cc1cn2c(C(=O)NCC34CC5CC(CC(C5)C3)C4)cccc2n1 [Compound 553, N-(adamantan-1-ylmethyl)-2-{[ethyl(2-hydroxyethyl)amino]methyl}imidazo[1,2-a]pyridine-5-carboxamide]
- IC50 [2]: < 2 µM

SMILES: O=C(NCC12CC3CC(CC(C3)C1)C2)c1ccn2cc(CCl)nc2c1 [Compound 1064, N-(adamantan-1-ylmethyl)-2-(chloromethyl)imidazo [1,2-a]pyridine-7-carboxamide]
- IC50 [5]: < 2 µM

SMILES: O=C(Cc1cn2c(C(=O)NCC34CC5CC(CC(C5)C3)C4)cccc2n1)NCCCO [Compound 27, N-(adamantan-1-ylmethyl)-2-{2-[(3-hydroxypropyl)amino]-2-oxoethyl}imi-dazo[1,2-a]pyridine-5-carboxamide]
- IC50: < 2 µM

SMILES: O=C(NCC12CC3CC(CC(C3)C1)C2)c1cccc2nc(C(=O)N3CCN([C@@H]4CCCC[C@H]4O)CC3)cn12 [Compound 701, N-(adamantan-1-ylmethyl)-2-({4-[(1R,2R)-2-hydroxycyclohexyl]piperazin-1-yl}carbonyl)imidazo[1,2-a]pyridine-5-carboxamide]
- IC50 [1]: < 2 µM

SMILES: CCOC(=O)C(C)(C)c1cn2c(C(=O)N(C)CC34CC5CC(CC(C5)C3)C4)cccc2n1 [Compound 451, ethyl 2-{5-[(adamantan-1-ylmethyl)(methyl)carbamoyl]imidazo [1,2-a]pyridin-2-yl} -2-methyl-propanoate]
- IC50 [2]: < 2 µM

SMILES: CN(CCO)Cc1cn2c(C(=O)NCC34CC5CC(CC(C5)C3)C4)cccc2n1 [Compound 131, N-(adamantan-1-ylmethyl)-2-{[(2-hydroxyethyl)(meth-yl)amino]methyl}imi-dazo[1,2-a]pyridine-5-carboxamide]
- IC50: < 2 µM

More lines, now with the values ahead:

- IC50 [1]: < 2 µM
SMILES: CN(Cc1cn2c(C(=O)NCC34CC5CC(CC(C5)C3)C4)cccc2n1)c1ncccc1C(=O)O [Compound 774, 2-[({5-[(adamantan-1-ylmethyl)carbamoyl]imidazo[1,2-a]pyridin-2-yl}methyl) (methyl)amino] nicotinic acid]

- IC50 [3]: < 2 µM
SMILES: CCNC(=O)c1cn2c(C(=O)NCC34CC5CC(CC(C5)C3)C4)cccc2n1 [Compound 72, 5-N-(adamantan-1-ylmethyl)-- ethylimidazo[1,2-a]pyridine-2,5-dicarboxamide]

- IC50 [4]: < 2 µM
SMILES: CC(=O)CCc1cn2c(C(=O)NCC34CC5CC(CC(C5)C3)C4)cccc2n1 [Compound 353, N-(adamantan-1-ylmethyl)-2-(3-oxobutyl)imidazo[l ,2-a]pyridine-5-carboxamide]

- IC50 [3]: < 2 µM
SMILES: O=C1CN(C(=O)c2cn3c(C(=O)NCC45CC6CC(CC(C6)C4)C5)cccc3n2)CCN1 [Compound 99, N-(adamantan-1-ylmethyl)-2-[(3-oxopiperazin-1-yl)carbonyl]imidazo[1,2-a]pyridine-5-carboxamide]

- IC50 [1]: < 2 µM
SMILES: NC[C@H]1CCCN1C(=O)c1cn2c(C(=O)NCC34CC5CC(CC(C5)C3)C4)cccc2n1 [Compound 633, N-(adamantan-1-ylmethyl)-2-{[(2R)-2-(aminomethyl)pyrrolidin-1-yl]carbonyl}imidazo[1,2-a]pyridine-5-carboxamide]

- IC50 [3]: < 2 µM
SMILES: CC(C)[C@H](CO)NC(=O)c1cn2c(C(=O)NCC34CC5CC(CC(C5)C3)C4)cccc2n1 [Compound 85, 5-N-(adamantan-1-ylmethyl)--[(1R)-1-(hydroxymethyl)-2-methyl-propyl]imidazo[1,2-a]pyridine-2,5-dicarboxamide]

- IC50 [4]: < 2 µM
SMILES: NCC(=O)NCCc1cn2c(C(=O)NCC34CC5CC(CC(C5)C3)C4)cccc2n1 [Compound 269, N-(adamantan-1-ylmethyl)-2-[2-(glycylamino)ethyl] imidazo[1,2-a] pyridine-5-carboxamide]

- IC50 [4]: < 2 µM
SMILES: CN(CC(=O)O)Cc1cn2c(C(=O)NCC34CC5CC(CC(C5)C3)C4)cccc2n1 [Compound 348, N-({5-[(adamantan-1-ylmethyl)carbamoyl]imidazo[1,2-a]pyridin-2-yl}methyl)-N-methylglycine]

- IC50 [4]: < 2 µM
SMILES: O=C(O)c1cccc(-c2cn3c(C(=O)NCC45CC6CC(CC(C6)C4)C5)cccc3n2)c1 [Compound 345, 3-{5-[(adamantan-1-ylmethyl)carbamoyl]imidazo[1,2-a]pyridin-2-yl} benzoic acid]

- IC50 [1]: < 2 µM
SMILES: CC(C)(Cc1cn2c(C(=O)NCC34CC5CC(CC(C5)C3)C4)cccc2n1)C(=O)O [Compound 731, 3-{5-[(adamantan-1-ylmethyl)carbamoyl]imidazo[1,2-a]pyridin-2-yl}-2,2-dimethylpropanoic acid]
